Drawing on patent publication US20050209278A1, “Piperidinyl- and piperazinyl-sulfonylmethyl hydroxamic acids and their use as protease inhibitors” (priority 2002, published 2005), this text covers Ki for 28 compounds.

The Ki is a measure of affinity in units of concentration, obtained from inhibition or displacement.

“And” between values parts separate entries of the source, which are not always exact repeats. Equal entries are not always repeated.

For one assay, the target named is T1, MMP-9 (Homo sapiens, UniProt P14780).
T1 construct: made in house; host or cells: MMP-9-transfected HT1080 cells (spent media)
T1 sequence (P14780 107-707 limits assumed): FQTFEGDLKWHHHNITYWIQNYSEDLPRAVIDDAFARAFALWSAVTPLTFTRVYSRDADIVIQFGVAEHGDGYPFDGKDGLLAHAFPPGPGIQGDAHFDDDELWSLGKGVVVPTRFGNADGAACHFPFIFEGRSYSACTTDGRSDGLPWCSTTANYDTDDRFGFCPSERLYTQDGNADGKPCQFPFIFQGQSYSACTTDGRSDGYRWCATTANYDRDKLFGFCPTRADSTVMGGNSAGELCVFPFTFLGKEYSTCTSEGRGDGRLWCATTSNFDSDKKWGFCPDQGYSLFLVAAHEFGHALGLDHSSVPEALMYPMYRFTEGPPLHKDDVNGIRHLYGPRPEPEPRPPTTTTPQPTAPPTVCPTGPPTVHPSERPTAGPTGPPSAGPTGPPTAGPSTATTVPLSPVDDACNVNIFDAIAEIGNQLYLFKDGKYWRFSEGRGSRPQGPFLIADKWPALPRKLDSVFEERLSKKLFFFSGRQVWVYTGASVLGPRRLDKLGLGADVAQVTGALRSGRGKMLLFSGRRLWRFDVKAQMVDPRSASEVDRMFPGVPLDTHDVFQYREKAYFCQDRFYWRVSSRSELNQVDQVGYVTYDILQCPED
The experiment in a line: In vitro MMP inhibition, Ki determination (fluorogenic substrate II). The assay is classed as biochemical. The conditions noted are these: value outside parentheses. The method in brief:
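HT1080-derived MMP-9, activated with APMA, trypsin or MMP-3, incubated 1 hr at room temperature with inhibitor and 4 μM fluorogenic substrate II (at or below Km) in pH 7.5 Tris/NaCl/CaCl2 buffer; ex 330/em 420 nm. Ki from Morrison-equation regression, without substrate correction.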

Another assay addresses T2, MMP-14 (Homo sapiens, UniProt P50281).
T2 construct: The catalytic domain enzyme was expressed in E. coli inclusion bodies, solubilized in urea; made in house
Described as above. The assay is classed as biochemical. The conditions noted are these: value outside parentheses; read-out: MMP-14 Ki. The method in brief:
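Apparent Ki was fitted with Morrison's equation from reaction rates at a single low enzyme level. Enzyme was APMA- or trypsin-activated refolded MMP-14 catalytic domain, buffered at pH 7.5 with 10 mM CaCl2.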

As for `O=C(NO)C1(S(=O)(=O)N2CCC(c3ccc(CCC(F)(F)F)cn3)CC2)CCOCC1` [Example 367], the inhibition constant (Ki) turned out to be 0.625 nM at MMP-9 and 3290 nM on MMP-14.
For the compound `O=C(NO)C1(S(=O)(=O)N2CCN(c3ncc(-c4ccc(O)cc4)s3)CC2)CCOCC1` [Example 368], the figures for the Ki on MMP-9 and at MMP-14 were 0.423 nM and 180 nM, respectively.
As to `O=C(NO)C1(S(=O)(=O)N2CCN(c3ncc(-c4ccc(Cl)c(Cl)c4)s3)CC2)CCOCC1` [Example 369], the Ki on MMP-9 was 22.7 nM; at MMP-14, 343 nM.
Take `Cc1cccc(-c2cnc(N3CCN(S(=O)(=O)C4(C(=O)NO)CCOCC4)CC3)s2)c1` [Example 370]: the Ki was determined as 9.1 nM at MMP-9 and 341 nM at MMP-14.
Consider `COc1ccc(-c2cnc(N3CCN(S(=O)(=O)C4(C(=O)NO)CCOCC4)CC3)s2)cc1OC` [Example 371], for which the Ki worked out at 6.5 nM at MMP-9 and 1590 nM on MMP-14.
Regarding `O=C(NO)C1(S(=O)(=O)N2CCN(c3ccc(-c4ccccc4)cn3)CC2)CCOCC1` [Example 372], the Ki on MMP-9 was 0.665 nM and 0.75 nM; at MMP-14 it was 462 nM and 470 nM.
Regarding `O=C(NO)C1(S(=O)(=O)N2CCC(COCc3ccccc3)CC2)CCOCC1` [Example 373], the Ki on MMP-9 amounted to 7.65 nM; on MMP-14, 79.7 nM.
On to `CCC=C1CCN(S(=O)(=O)C2(C(=O)NO)CCOCC2)CC1` [Example 374], for which the Ki was determined as 219 nM on MMP-9 and 195 nM at MMP-14.
With `O=C(NO)C1(S(=O)(=O)N2CCC(COCC(F)(F)C(F)F)CC2)CCOCC1` [Example 375], the Ki came to 105 nM at MMP-9 and 2860 nM on MMP-14.
In the case of `O=C(NO)C1(S(=O)(=O)N2CCC(COCC(F)(F)C(F)(F)F)CC2)CCOCC1` [Example 376], the figures for the Ki at MMP-9 and at MMP-14 were 114 nM and 3120 nM, respectively.
Turning to `O=C(NO)C1(S(=O)(=O)N2CCC(COCC(F)(F)C(F)(F)C(F)(F)F)CC2)CCOCC1` [Example 377], the Ki at MMP-9 is 174 nM; on MMP-14, more than 10000 nM.
Take `O=C(NO)C1(S(=O)(=O)N2CCC(COCC(F)(F)C(F)(F)C(F)(F)C(F)F)CC2)CCOCC1` [Example 378]: the Ki at MMP-9 is 219 nM; at MMP-14 it was more than 10000 nM.
For `CCCCc1ccc(-c2cnc(N3CCN(S(=O)(=O)C4(C(=O)NO)CCOCC4)CC3)s2)cc1` [Example 379], the Ki at MMP-9 turned out to be 3.97 nM; on MMP-14, 283 nM.
The like results for `CCCCCc1ccc(-c2cnc(N3CCN(S(=O)(=O)C4(C(=O)NO)CCOCC4)CC3)s2)cc1` [Example 380] were, in that order, 16.2 nM and 3210 nM.
Consider `CCc1ccc(-c2cnc(N3CCN(S(=O)(=O)C4(C(=O)NO)CCOCC4)CC3)s2)cc1` [Example 381], for which the values for the Ki at MMP-9 and on MMP-14 were 1.03 nM and 54.1 nM, respectively.
For `O=C(NO)C1(S(=O)(=O)N2CCN(c3ncc(-c4cccnc4)s3)CC2)CCOCC1` [Example 382], in that order: 4.26 nM and 778 nM.
Consider `NC(=O)c1ccccc1-c1cnc(N2CCN(S(=O)(=O)C3(C(=O)NO)CCOCC3)CC2)s1` [Example 383], for which the results for the Ki at MMP-9 and at MMP-14 were 9520 nM and more than 10000 nM, respectively.
On to `N#Cc1cccc(-c2cnc(N3CCN(S(=O)(=O)C4(C(=O)NO)CCOCC4)CC3)s2)c1` [Example 384], for which the Ki on MMP-9 came out at 6.4 nM; on MMP-14, 867 nM.
Regarding `O=C(NO)C1(S(=O)(=O)N2CCC(c3ccc(OCC(F)(F)C(F)F)cc3)CC2)CCN(CCN2CCOCC2)CC1` [Example 385], the values for the Ki at MMP-9 and at MMP-14 were 0.829 nM and 2930 nM, respectively.
For `O=C(NO)C1(S(=O)(=O)N2CCN(c3ccc(CCCC(F)(F)F)cc3F)CC2)CCOCC1` [Example 386], the Ki at MMP-9 is 4.9 nM; at MMP-14 it was more than 10000 nM.
The like results for `O=C(NO)C1(S(=O)(=O)N2CCN(c3ncc(-c4ccccn4)s3)CC2)CCOCC1` [Example 387] were, in that order, 34.6 nM and 4550 nM.
For `CCCCc1ccc(C2CCN(S(=O)(=O)C3(C(=O)NO)CCNCC3)CC2)nc1` [Example 388], in that order: 2.3 nM and more than 10000 nM.
For `O=C(NO)C1(S(=O)(=O)N2CCN(c3ccc(CCCC(F)(F)F)c(F)c3)CC2)CCOCC1` [Example 389], in that order: 1.34 nM and 3170 nM.
As for `O=C(NO)C1(S(=O)(=O)N2CCC(c3ccc(-c4cccnc4)cn3)CC2)CCOCC1` [Example 390], the results for the Ki at MMP-9 and on MMP-14 were 53.2 nM and more than 10000 nM, respectively.
For the compound `O=C(NO)C1(S(=O)(=O)N2CCC(c3ccc(-c4ccccc4)cn3)CC2)CCOCC1` [Example 392], the Ki came to 2.33 nM on MMP-9 and 1290 nM at MMP-14.
As to `O=C(NO)C1(S(=O)(=O)N2CCC(c3ccc(-c4cccs4)cn3)CC2)CCOCC1` [Example 394], the Ki on MMP-9 came out at 1.52 nM; on MMP-14, 931 nM.
The like results for `O=C(NO)C1(S(=O)(=O)N2CCC(c3ccc(-c4ccc(C(F)(F)F)cc4)cn3)CC2)CCOCC1` [Example 395] were, in that order, 29.4 nM and 1760 nM.
With `CCCCc1ccc(C2CCN(S(=O)(=O)C3(C(=O)NO)CCN(CC)CC3)CC2)nc1` [Example 396], the figures for the Ki on MMP-9 and on MMP-14 were 0.39 nM and 7650 nM, respectively.
